# In patent US20220023450A1, “BONE MARROW-, RETICULOE[…]-, AND/OR LYMPH NODE-TARGETED RA[…] AND METHODS OF THEIR DIAGNOSTIC AND […] USE” (Memorial Sloan Kettering Cancer Center, priority 2018, published 2022):
# Read-outs that look alike come from different tables or passages of the source.
# What was measured:
# [1] = system: peripheral blood cells (WBC, lymphocytes, platelets); assay: Blood cell recovery after sub-lethal total body irradiation (4 Gy); type: in vivo, C57/BL6 mice
# Method: GT3-Lipo treated 24 h before TBI, GT3-Lipo treated 24 h after TBI, BMT only and no treatment.
# FIGS. 3A and 3B a plot of complete blood count (CBC) data showing white blood cell (WBC) recovery after total body irradiation (TBI) (4 Gy) (FIG. 3A), and a plot of lymphocyte recovery after TBI (4 Gy) (FIG. 3B). C57BL6 mice were divided into 4 groups (5 mice per group). (Filled circle) GT3-Lipo treated 24 h before TBI. (Open square) BMT-Lipo treated 24 h before TBI. (Filled square) GT3-Lipo treated 24 h after TBI. (Open circle) No treatment. 10 mg/kg/mice GT3 were treated via i.v. and blood was collected by retro-orbital bleeding on day 0, 1, 4, 7, 14, 21, 43, 57 and 99.
# White blood cells (WBC), lymphocytes, and neutrophils decreased to less than 10% of baseline counts with a nadir at day 1-4, post irradiation. […] Recovery of GT3 treated groups reached 100% at day 43. For the untreated group, WBC and lymphocyte counts recovered about 60% at day 43 and WBC and lymphocyte counts never recovered to normal level until day 99. Neutrophil counts decreased to nadir on day 4 for GT3 treated and untreated groups. […] recovered on day 7 and remained relatively the same counts until day 99. Platelet counts increased on day 1 and decreased to nadir on day 14. Platelet counts were recovered to normal level at day 43 and remained the same level until day 99 in all groups.
# 6- to 8-week-old C57/BL6 mice (Jackson Lab., Bar Harbor, Me.) were used for bone marrow protection from total body irradiation studies. 10 mg/kg GT3 liposomes (6% mol) were administered via i.v. 24 h pre- and post-total body irradiation (4 Gy, […], dose rate=82 cGy/min). No supportive care was given to mice after irradiation. Approximately 100 μL of blood was collected by retro-orbital blood collection for complete blood cell counts at various time points for 100 days.
# MDA-MB-468 tumor = assay: Focal radiation therapy of tumor after GT3 administration; type: in vivo; settings: 10 mg/kg GT3 prior to 11 Gy focal irradiation
# Source text: Though GT3 accumulation in the tumor is moderate, there is possibility that GT3 in the tumor might protect tumor during radiation therapy. On the contrary, there are several reports that tocotrienols suppress the proliferation of a wide variety of tumor cells in culture, such as MDA-MB-435, MCF-7, PC-3, LnCaP and DLD-1. Animal studies also have been shown that tocotrienol suppresses the growth of tumors such as 7,12-dimethylbenz(a)anthracene induced mammary tumor, HepG2, and PC-3. To address the question that GT3 protects tumors from irradiation, focal radiation therapy was performed to evaluate the effect of GT3 in the tumor when 10 mg/kg GT3 was administered prior to 11 Gy focal irradiation.
# [2] = C57/BL6, mouse, in vivo
# Method: Mice were sacrificed at the indicated time and major organs were collected and weighed. ^64Cu counting was done as soon as the organs were collected and ^3H counting was measured 5 days after mice were sacrificed. The % ID/g was calculated by measuring weight and time corrected measurement of radioactivity. n=5 per group.
# For biodistribution studies, approximately 5.5 MBg of [^64Cu]-DOTA-Bz-DSPE-labeled liposome and 370 kBq of ^3H-GT3 incorporated liposome was intravenously administered to C57/BL6 athymic nude mice (n=5 per group) via tail vein injection. Mice were sacrificed at 24 or 48 h after injection and major organs were collected and placed in pre-weighed culture tubes or Eppendorf tubes. To collect bone marrow, the femur was dipped into liquid nitrogen and one of the epiphyses was carefully removed. A 30 mL syringe with gauge 30½ needles was inserted into one end of the femur; air was blown and bone marrow was collected in the same tubes for radioactivity counting in a gamma counter (PerkinElmer, Inc., Waltham, Mass.). For ^3H activity measurement, major organs were collected in pre-weighed scintillation vials and 500 uL of Soluene®-350 were added. After overnight incubation at 37° C., 4.5 mL of Ecoscint A were added, mixed well, and counted in scintillation counter. Data were presented as percent injected dose per gram (% ID/g) of tissue.
Compound,platelet counts compared with untreated group ([1]; 4 Gy TBI),"recovery of WBC and lymphocytes compared with untreated group ([1]; 4 Gy TBI, 10 mg/kg GT3 liposomes i.v. 24 h before or after TBI)","recovery of WBC and lymphocyte counts ([1]; day 43 after 4 Gy TBI, 10 mg/kg GT3 liposomes i.v.)",effect on tumor response to focal radiation (MDA-MB-468 tumor),loss of active drug during the tissue targeting process [2],"Biodistribution, Marrow ([2]; 24 h)","Biodistribution, Spleen ([2]; 24 h)","Biodistribution, Marrow ([2]; 48 h)","Biodistribution, Spleen ([2]; 48 h)"
"CC(C)=CCC/C(C)=C/CC/C(C)=C/CC[C@]1(C)CCc2cc(O)c(C)c(C)c2O1 [GT3, (2R)-2,7,8-trimethyl-2-[(3E,7E)-4,8,12-trimethyltrideca-3,7,11-trienyl]-3,4-dihydrochromen-6-ol]",no significant differences,faster and more complete,100%,does not protect nor sensitize,–,–,–,–,–
CC(C)=CCC/C(C)=C/CC/C(C)=C/CC[C@]1(C)CCc2cc(O)c(C)c(C)c2O1 [[^3H]-GT3],–,–,–,–,approximately 50%,4.28±1.57 % ID/g,7.95±1.63 % ID/g,7.44±2.81 % ID/g,8.26±1.86 % ID/g
